Experimental data reported in article PMC8801435, “Legume Alternative Oxidase Isoforms Show Differential Sensitivity to Pyruvate Activation” (Frontiers in Plant Science, 2022).

Assays:
Experiment in all cases: O2 consumption (Clark electrode), activation of AOX in inverted membrane vesicles
Assay type in all cases: biochemical
GmAOX2A = target: T1, GmAOX2A (Glycine max, UniProt Q41266); conditions: activator; 2.5 mM NADH, 5 mM DTT, 1 mM KCN, pH 7.0; discussion text b26 prints 90 μM; read-out: Present study / K1/2 PYR
T1 construct: gene AOX2; mature form, predicted mitochondrial target peptide removed, new start Met (forward primer encodes M-MVSPA), pET22b(+), E. coli BHH8 inverted membrane vesicles; apparent 29 kDa; reduced (DTT)
T1 sequence (Q41266 58-333): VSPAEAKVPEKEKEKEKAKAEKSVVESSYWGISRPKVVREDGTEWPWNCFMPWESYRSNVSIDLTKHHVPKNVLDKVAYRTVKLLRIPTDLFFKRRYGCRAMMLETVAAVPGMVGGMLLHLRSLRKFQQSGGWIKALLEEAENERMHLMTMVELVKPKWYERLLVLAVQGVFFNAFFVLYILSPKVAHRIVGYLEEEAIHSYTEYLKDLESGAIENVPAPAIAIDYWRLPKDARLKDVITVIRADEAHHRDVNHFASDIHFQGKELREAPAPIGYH
From the text: O2 consumption (Clark electrode), activation of AOX in inverted membrane vesicles on GmAOX2A

GmAOX1 = target: T2, GmAOX1 (Glycine max, UniProt Q07185); conditions: activator; 2.5 mM NADH, 5 mM DTT, 1 mM KCN, pH 7.0; discussion text b26 prints 6 μM; read-out: Present study / K1/2 PYR
T2 construct: gene AOX1; mature form, predicted mitochondrial target peptide removed, new start Met (forward primer encodes M-ESTLALS), pET22b(+), E. coli BHH8 inverted membrane vesicles; apparent 28 kDa; reduced (DTT)
T2 sequence (Q07185 42-321): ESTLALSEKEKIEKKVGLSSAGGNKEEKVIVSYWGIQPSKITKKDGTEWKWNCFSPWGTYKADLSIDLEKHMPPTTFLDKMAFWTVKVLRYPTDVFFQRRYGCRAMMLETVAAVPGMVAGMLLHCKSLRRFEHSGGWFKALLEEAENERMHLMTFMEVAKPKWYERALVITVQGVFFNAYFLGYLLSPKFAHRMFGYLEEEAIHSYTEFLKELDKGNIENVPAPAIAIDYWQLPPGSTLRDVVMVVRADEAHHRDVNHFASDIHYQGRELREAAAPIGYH
From the text: O2 consumption (Clark electrode), activation of AOX in inverted membrane vesicles on GmAOX1

GmAOX2D = target: T3, GmAOX2D (Glycine max, UniProt O03376); conditions: activator; 2.5 mM NADH, 5 mM DTT, 1 mM KCN, pH 7.0; read-out: Present study / K1/2 PYR
T3 construct: gene AOX3; mature form, predicted mitochondrial target peptide removed, new start Met (forward primer encodes M-STLPEVK), pET22b(+), E. coli BHH8 inverted membrane vesicles; apparent 31 kDa; reduced (DTT)
T3 sequence (O03376 51-326): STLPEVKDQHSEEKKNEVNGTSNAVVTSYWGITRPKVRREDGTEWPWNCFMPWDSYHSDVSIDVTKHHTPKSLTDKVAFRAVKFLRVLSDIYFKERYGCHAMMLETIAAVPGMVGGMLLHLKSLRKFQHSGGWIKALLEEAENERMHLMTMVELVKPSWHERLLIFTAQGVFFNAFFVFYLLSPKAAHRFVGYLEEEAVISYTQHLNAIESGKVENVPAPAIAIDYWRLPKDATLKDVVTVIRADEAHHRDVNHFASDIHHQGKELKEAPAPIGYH
From the text: O2 consumption (Clark electrode), activation of AOX in inverted membrane vesicles on GmAOX2D

EC50 (GmAOX2A): 99 µM | EC50 (GmAOX1): 4 µM | EC50 (GmAOX2D): 40 µM
Compound: CC(=O)C(=O)O [pyruvate]
